# Measured values as given in patent publication US20250270707A1, “NON-TRIAZOLE IMIDAZOLINE AND AMIDE COMPOUNDS AND METHODS FOR INHIBITING CORROSION IN INDUSTRIAL WATER TREATMENT” (CHEMTREAT, INC., priority 2023, published 2025).
# Columns and labels:
# [1] = Cl2 demand in the corrosion cell test (Examples 1 and 2); type: physicochemical
# Method: (§1) One liter samples of synthetic water were each dosed with the compositions in Table 1.
# (§2) The apparatus used for the corrosion testing was a Gamry Multiport Corrosion Cell and Gamry Reference 600+potentiostat with multiplexor. Copper coupons (CDA110) were added to the sample cells containing neutral water (pH 7.5), and the cells were dosed with 50 ppm of scale inhibitor (co-polymer and 2-phosphonobutane-1,2,4-yricarboxylic acid) and heated to 50° C. and maintained at this temperature throughout the testing. The cells were continuously stirred at a speed of 350 rpm. A cylindrical working electrode was submerged into the test solutions, and an LPR sweep (linear polarization resistance) was performed every hour for 18 hours. After the 0.5 hrs mark, 1 ppm of free chlorine was dosed into the corrosion cell.
# (§3) One liter samples of the synthetic water described above with respect to Example 1 were each dosed with the compositions in Table 5 and processed under conditions similar to Example 1.
# [2] = Corrosion rate by LPR sweep, copper coupons in synthetic water, 50° C., 1 ppm free chlorine after 0.5 hrs (Examples 1 and 2); conditions: for corrosion inhibition properties over the entire 18 hour period (in words) / corrosion resistance when free chlorine was added (in words): Example 2
# Method: as §1, §2, §3
molecule,measurement,setting,value
Disodium Coco Imidazoline Dicarboxylate [DCIMDCC],Cl2 Demand,[1]; 2 ppm,0.9 mg/L
same,CR Average (10-18 hrs),[2]; 2 ppm,0.025 mpy
same,CR Peak,[2]; 2 ppm,0.267 mpy
same,corrosion rate,"[2]; 2 ppm, 0 hrs",0.0395 mpy
same,corrosion rate,"[2]; 2 ppm, 1 hrs",0.2665 mpy
same,corrosion rate,"[2]; 2 ppm, 2 hrs",0.1537 mpy
same,corrosion rate,"[2]; 2 ppm, 3 hrs",0.0908 mpy
same,corrosion rate,"[2]; 2 ppm, 4 hrs",0.0856 mpy
same,corrosion rate,"[2]; 2 ppm, 5 hrs",0.0744 mpy
same,corrosion rate,"[2]; 2 ppm, 6 hrs",0.0600 mpy
same,corrosion rate,"[2]; 2 ppm, 7 hrs",0.0499 mpy
same,corrosion rate,"[2]; 2 ppm, 8 hrs",0.0409 mpy
same,corrosion rate,"[2]; 2 ppm, 9 hrs",0.0375 mpy
same,corrosion rate,"[2]; 2 ppm, 10 hrs",0.0339 mpy
same,corrosion rate,"[2]; 2 ppm, 11 hrs",0.0313 mpy
same,corrosion rate,"[2]; 2 ppm, 12 hrs",0.0283 mpy
same,corrosion rate,"[2]; 2 ppm, 13 hrs",0.0266 mpy
same,corrosion rate,"[2]; 2 ppm, 14 hrs",0.0243 mpy
same,corrosion rate,"[2]; 2 ppm, 15 hrs",0.0224 mpy
same,corrosion rate,"[2]; 2 ppm, 16 hrs",0.0209 mpy
same,corrosion rate,"[2]; 2 ppm, 17 hrs",0.0196 mpy
same,corrosion rate,"[2]; 2 ppm, 18 hrs",0.0188 mpy
Disodium Cocoamphodiacetate [DCADAA],Cl2 Demand,[1]; 2 ppm,0.6 mg/L
same,CR Average (10-18 hrs),[2]; 2 ppm,0.036 mpy
same,CR Peak,[2]; 2 ppm,0.180 mpy
same,corrosion rate,"[2]; 2 ppm, 0 hrs",0.0198 mpy
same,corrosion rate,"[2]; 2 ppm, 1 hrs",0.1804 mpy
same,corrosion rate,"[2]; 2 ppm, 2 hrs",0.1576 mpy
same,corrosion rate,"[2]; 2 ppm, 3 hrs",0.1608 mpy
same,corrosion rate,"[2]; 2 ppm, 4 hrs",0.1140 mpy
same,corrosion rate,"[2]; 2 ppm, 5 hrs",0.1360 mpy
same,corrosion rate,"[2]; 2 ppm, 6 hrs",0.0910 mpy
same,corrosion rate,"[2]; 2 ppm, 7 hrs",0.0780 mpy
same,corrosion rate,"[2]; 2 ppm, 8 hrs",0.0629 mpy
same,corrosion rate,"[2]; 2 ppm, 9 hrs",0.0545 mpy
same,corrosion rate,"[2]; 2 ppm, 10 hrs",0.0516 mpy
same,corrosion rate,"[2]; 2 ppm, 11 hrs",0.0459 mpy
same,corrosion rate,"[2]; 2 ppm, 12 hrs",0.0419 mpy
same,corrosion rate,"[2]; 2 ppm, 13 hrs",0.0375 mpy
same,corrosion rate,"[2]; 2 ppm, 14 hrs",0.0349 mpy
same,corrosion rate,"[2]; 2 ppm, 15 hrs",0.0316 mpy
same,corrosion rate,"[2]; 2 ppm, 16 hrs",0.0290 mpy
same,corrosion rate,"[2]; 2 ppm, 17 hrs",0.0246 mpy
same,corrosion rate,"[2]; 2 ppm, 18 hrs",0.0252 mpy
same,corrosion inhibition properties over the entire 18 hour period (in words),[2]; 2 ppm,good corrosion inhibition properties
Sodium Cocoamphoacetate [SCAA],Cl2 Demand,[1]; 2 ppm,1.0 mg/L
same,CR Average (10-18 hrs),[2]; 2 ppm,0.017 mpy
same,CR Peak,[2]; 2 ppm,0.197 mpy
same,corrosion rate,"[2]; 2 ppm, 0 hrs",0.0217 mpy
same,corrosion rate,"[2]; 2 ppm, 1 hrs",0.1969 mpy
same,corrosion rate,"[2]; 2 ppm, 2 hrs",0.0988 mpy
same,corrosion rate,"[2]; 2 ppm, 3 hrs",0.0761 mpy
same,corrosion rate,"[2]; 2 ppm, 4 hrs",0.0602 mpy
same,corrosion rate,"[2]; 2 ppm, 5 hrs",0.0506 mpy
same,corrosion rate,"[2]; 2 ppm, 6 hrs",0.0473 mpy
same,corrosion rate,"[2]; 2 ppm, 7 hrs",0.0347 mpy
same,corrosion rate,"[2]; 2 ppm, 8 hrs",0.0293 mpy
same,corrosion rate,"[2]; 2 ppm, 9 hrs",0.0257 mpy
same,corrosion rate,"[2]; 2 ppm, 10 hrs",0.0231 mpy
same,corrosion rate,"[2]; 2 ppm, 11 hrs",0.0212 mpy
same,corrosion rate,"[2]; 2 ppm, 12 hrs",0.0191 mpy
same,corrosion rate,"[2]; 2 ppm, 13 hrs",0.0177 mpy
same,corrosion rate,"[2]; 2 ppm, 14 hrs",0.0166 mpy
same,corrosion rate,"[2]; 2 ppm, 15 hrs",0.0156 mpy
same,corrosion rate,"[2]; 2 ppm, 16 hrs",0.0142 mpy
same,corrosion rate,"[2]; 2 ppm, 17 hrs",0.0139 mpy
same,corrosion rate,"[2]; 2 ppm, 18 hrs",0.0128 mpy
same,corrosion inhibition properties over the entire 18 hour period (in words),[2]; 2 ppm,good corrosion inhibition properties
"CCCCCCCCCCCC(=O)NCCN(CCOCC(=O)[O-])CC(=O)[O-].[Na+].[Na+] [DLADAA, Disodium Lauroamphodiacetate]",Cl2 Demand,[1]; 2 ppm,0.7 mg/L
same,CR Average (10-18 hrs),[2]; 2 ppm,0.036 mpy
same,CR Peak,[2]; 2 ppm,0.392 mpy
same,corrosion rate,"[2]; 2 ppm, 0 hrs",0.0175 mpy
same,corrosion rate,"[2]; 2 ppm, 1 hrs",0.3923 mpy
same,corrosion rate,"[2]; 2 ppm, 2 hrs",0.3065 mpy
same,corrosion rate,"[2]; 2 ppm, 3 hrs",0.2159 mpy
same,corrosion rate,"[2]; 2 ppm, 4 hrs",0.1420 mpy
same,corrosion rate,"[2]; 2 ppm, 5 hrs",0.1385 mpy
same,corrosion rate,"[2]; 2 ppm, 6 hrs",0.1059 mpy
same,corrosion rate,"[2]; 2 ppm, 7 hrs",0.0894 mpy
same,corrosion rate,"[2]; 2 ppm, 8 hrs",0.0705 mpy
same,corrosion rate,"[2]; 2 ppm, 9 hrs",0.0631 mpy
same,corrosion rate,"[2]; 2 ppm, 10 hrs",0.0512 mpy
same,corrosion rate,"[2]; 2 ppm, 11 hrs",0.0461 mpy
same,corrosion rate,"[2]; 2 ppm, 12 hrs",0.0419 mpy
same,corrosion rate,"[2]; 2 ppm, 13 hrs",0.0378 mpy
same,corrosion rate,"[2]; 2 ppm, 14 hrs",0.0347 mpy
same,corrosion rate,"[2]; 2 ppm, 15 hrs",0.0304 mpy
same,corrosion rate,"[2]; 2 ppm, 16 hrs",0.0282 mpy
same,corrosion rate,"[2]; 2 ppm, 17 hrs",0.0262 mpy
same,corrosion rate,"[2]; 2 ppm, 18 hrs",0.0242 mpy
same,corrosion inhibition properties over the entire 18 hour period (in words),[2]; 2 ppm,good corrosion inhibition properties
"CCCCCCCC(=O)NCCN(CCOCC(=O)[O-])CC(=O)[O-].[Na+].[Na+] [DCyADAA, Disodium Capryloamphodiacetate]",Cl2 Demand,[1]; 2 ppm,1.1 mg/L
same,CR Average (10-18 hrs),[2]; 2 ppm,0.271 mpy
same,CR Peak,[2]; 2 ppm,2.854 mpy
same,corrosion rate,"[2]; 2 ppm, 0 hrs",0.0230 mpy
same,corrosion rate,"[2]; 2 ppm, 1 hrs",2.8540 mpy
same,corrosion rate,"[2]; 2 ppm, 2 hrs",1.5850 mpy
same,corrosion rate,"[2]; 2 ppm, 3 hrs",1.3860 mpy
same,corrosion rate,"[2]; 2 ppm, 4 hrs",0.5261 mpy
same,corrosion rate,"[2]; 2 ppm, 5 hrs",0.6207 mpy
same,corrosion rate,"[2]; 2 ppm, 6 hrs",0.5852 mpy
same,corrosion rate,"[2]; 2 ppm, 7 hrs",0.4766 mpy
same,corrosion rate,"[2]; 2 ppm, 8 hrs",0.4185 mpy
same,corrosion rate,"[2]; 2 ppm, 9 hrs",0.3747 mpy
same,corrosion rate,"[2]; 2 ppm, 10 hrs",0.3416 mpy
same,corrosion rate,"[2]; 2 ppm, 11 hrs",0.3181 mpy
same,corrosion rate,"[2]; 2 ppm, 12 hrs",0.2953 mpy
same,corrosion rate,"[2]; 2 ppm, 13 hrs",0.2800 mpy
same,corrosion rate,"[2]; 2 ppm, 14 hrs",0.2681 mpy
same,corrosion rate,"[2]; 2 ppm, 15 hrs",0.2352 mpy
same,corrosion rate,"[2]; 2 ppm, 16 hrs",0.2411 mpy
same,corrosion rate,"[2]; 2 ppm, 17 hrs",0.2394 mpy
same,corrosion rate,"[2]; 2 ppm, 18 hrs",0.2217 mpy
same,corrosion inhibition properties over the entire 18 hour period (in words),[2]; 2 ppm,inferior corrosion inhibition properties
same,corrosion resistance when free chlorine was added (in words),[2]; 2 ppm,substantial deterioration in corrosion resistance
"CCCCCCCC(=O)NCCN(CCOCCC(=O)[O-])CCC(=O)[O-].[Na+].[Na+] [DCADPP, Disodium Capryloamphodipropionate]",Cl2 Demand,[1]; 2 ppm,1.0 mg/L
same,CR Average (10-18 hrs),[2]; 2 ppm,0.304 mpy
same,CR Peak,[2]; 2 ppm,2.169 mpy
same,corrosion rate,"[2]; 2 ppm, 0 hrs",0.0293 mpy
same,corrosion rate,"[2]; 2 ppm, 1 hrs",2.1690 mpy
same,corrosion rate,"[2]; 2 ppm, 2 hrs",1.4770 mpy
same,corrosion rate,"[2]; 2 ppm, 3 hrs",1.3090 mpy
same,corrosion rate,"[2]; 2 ppm, 4 hrs",0.6705 mpy
same,corrosion rate,"[2]; 2 ppm, 5 hrs",0.6007 mpy
same,corrosion rate,"[2]; 2 ppm, 6 hrs",0.6353 mpy
same,corrosion rate,"[2]; 2 ppm, 7 hrs",0.5403 mpy
same,corrosion rate,"[2]; 2 ppm, 8 hrs",0.4352 mpy
same,corrosion rate,"[2]; 2 ppm, 9 hrs",0.3962 mpy
same,corrosion rate,"[2]; 2 ppm, 10 hrs",0.3671 mpy
same,corrosion rate,"[2]; 2 ppm, 11 hrs",0.3426 mpy
same,corrosion rate,"[2]; 2 ppm, 12 hrs",0.3293 mpy
same,corrosion rate,"[2]; 2 ppm, 13 hrs",0.3130 mpy
same,corrosion rate,"[2]; 2 ppm, 14 hrs",0.2994 mpy
same,corrosion rate,"[2]; 2 ppm, 15 hrs",0.2826 mpy
same,corrosion rate,"[2]; 2 ppm, 16 hrs",0.2749 mpy
same,corrosion rate,"[2]; 2 ppm, 17 hrs",0.2691 mpy
same,corrosion rate,"[2]; 2 ppm, 18 hrs",0.2604 mpy
same,corrosion inhibition properties over the entire 18 hour period (in words),[2]; 2 ppm,inferior corrosion inhibition properties
same,corrosion resistance when free chlorine was added (in words),[2]; 2 ppm,substantial deterioration in corrosion resistance
"CCCCCCCCCCCCCCCCCCN(C(=O)CC(C(=O)[O-])S(=O)(=O)[O-])C(CC(=O)[O-])C(=O)[O-].[Na+].[Na+].[Na+].[Na+] (stereo not shown) [TDSS, Tetrasodium Dicarboxyethyl Stearyl Sulfosuccinamate, reference compound]",Cl2 Demand,[1]; 7 ppm,0.8 mg/L
same,CR Average (10-18 hrs),[2]; 7 ppm,0.141 mpy
same,CR Peak,[2]; 7 ppm,0.243 mpy
same,corrosion rate,"[2]; 7 ppm, 0 hrs",0.0149 mpy
same,corrosion rate,"[2]; 7 ppm, 1 hrs",0.1875 mpy
same,corrosion rate,"[2]; 7 ppm, 2 hrs",0.2432 mpy
same,corrosion rate,"[2]; 7 ppm, 3 hrs",0.2313 mpy
same,corrosion rate,"[2]; 7 ppm, 4 hrs",0.1839 mpy
same,corrosion rate,"[2]; 7 ppm, 5 hrs",0.1611 mpy
same,corrosion rate,"[2]; 7 ppm, 6 hrs",0.1349 mpy
same,corrosion rate,"[2]; 7 ppm, 7 hrs",0.1387 mpy
same,corrosion rate,"[2]; 7 ppm, 8 hrs",0.1304 mpy
same,corrosion rate,"[2]; 7 ppm, 9 hrs",0.1291 mpy
same,corrosion rate,"[2]; 7 ppm, 10 hrs",0.1381 mpy
same,corrosion rate,"[2]; 7 ppm, 11 hrs",0.1431 mpy
same,corrosion rate,"[2]; 7 ppm, 12 hrs",0.1363 mpy
same,corrosion rate,"[2]; 7 ppm, 13 hrs",0.1485 mpy
same,corrosion rate,"[2]; 7 ppm, 14 hrs",0.1371 mpy
same,corrosion rate,"[2]; 7 ppm, 15 hrs",0.1428 mpy
same,corrosion rate,"[2]; 7 ppm, 16 hrs",0.1422 mpy
same,corrosion rate,"[2]; 7 ppm, 17 hrs",0.1375 mpy
same,corrosion rate,"[2]; 7 ppm, 18 hrs",0.1422 mpy
"CCCCCCCCCCCCN(CCC(=O)[O-])CCC(=O)O.[Na+] [SL, Sodium Lauriminodipropionate, reference compound]",Cl2 Demand,[1]; 2 ppm,0.7 mg/L
same,CR Average (10-18 hrs),[2]; 2 ppm,0.067 mpy
same,CR Peak,[2]; 2 ppm,0.932 mpy
same,corrosion rate,"[2]; 2 ppm, 0 hrs",0.0368 mpy
same,corrosion rate,"[2]; 2 ppm, 1 hrs",0.9317 mpy
same,corrosion rate,"[2]; 2 ppm, 2 hrs",0.4889 mpy
same,corrosion rate,"[2]; 2 ppm, 3 hrs",0.3498 mpy
same,corrosion rate,"[2]; 2 ppm, 4 hrs",0.2185 mpy
same,corrosion rate,"[2]; 2 ppm, 5 hrs",0.1644 mpy
same,corrosion rate,"[2]; 2 ppm, 6 hrs",0.1286 mpy
same,corrosion rate,"[2]; 2 ppm, 7 hrs",0.1128 mpy
same,corrosion rate,"[2]; 2 ppm, 8 hrs",0.0992 mpy
same,corrosion rate,"[2]; 2 ppm, 9 hrs",0.0910 mpy
same,corrosion rate,"[2]; 2 ppm, 10 hrs",0.0854 mpy
same,corrosion rate,"[2]; 2 ppm, 11 hrs",0.0779 mpy
same,corrosion rate,"[2]; 2 ppm, 12 hrs",0.0757 mpy
same,corrosion rate,"[2]; 2 ppm, 13 hrs",0.0685 mpy
same,corrosion rate,"[2]; 2 ppm, 14 hrs",0.0643 mpy
same,corrosion rate,"[2]; 2 ppm, 15 hrs",0.0613 mpy
same,corrosion rate,"[2]; 2 ppm, 16 hrs",0.0580 mpy
same,corrosion rate,"[2]; 2 ppm, 17 hrs",0.0543 mpy
same,corrosion rate,"[2]; 2 ppm, 18 hrs",0.0536 mpy
same,corrosion inhibition properties over the entire 18 hour period (in words),[2]; 2 ppm,did not perform well
